# Key:
# [1] = target: T1, mKCNQ2 channels (Mus musculus, UniProt Q9Z351); test: KCNQ patch-clamp (whole-cell recordings, HEK 293 stable cell line); assay type: cell-based; conditions: current of KCNQ2 channels, HEK 293 cells expressing mKCNQ2
# T1 construct: expressed in transfected cells
# Protocol: KCNQ Patch-clamp. Whole-cell patch-clamp recordings were made from an HEK 293 stable cell line expressing mKCNQ2 channels, maintained in culture for 1-2 days. Patch pipettes had initial resistances of 2.5-4 MΩ. Currents were recorded with an EPC-9 amplifier (HEKA, Lambrecht, Germany) controlled with software (Pulse, HEKA) run on a standard lab PC. Series resistance compensation was used during current recording, and set at 80%. The series resistance (R) and cell capacitance (C) were determined electronically by subtracting the capacitive currents at the onset and offset of a 5 mV voltage step. The cancellation of whole-cell capacitive transients was virtually complete in all cells. Analog current signals were low-pass filtered at 2.9 kHz using a four-pole Bessel filter −3 dB) and stored on a local network server computer at a sampling rate of […]. All recordings were performed at room temperature (20-22° C.). The pipette solution contained (mM) KCl, 150; CaCl2, 2.5; EGTA, 5; MgCl2, 1; HEPES, 10; pH to 7.3 with KOH, and Osmolality of 290-300 mOsm. The extracellular solution contained (mM): NaCl, 140; KCl, 2.5; CaCl2, 2.5; MgCl2, 1; glucose, 10; HEPES, 10; pH to 7.3 with NaOH, and Osmolality of 305-310 mOsm. […]
# [2] = system: peripheral mononeuropathy nerve injury-induced tactile allodynia; test: Chung model of neuropathic pain (Chung surgery and von Frey test); assay type: in vivo, Sprague Dawley rats; conditions: 10 mg/kg, i.v.; von Frey thresholds over 90 min, rat
# Protocol: Chung model of neuropathic pain (Chung surgery and von Frey test). To test agents for activity against peripheral mononeuropathy nerve injury-induced tactile allodynia, male Sprague Dawley rats (wt. 120-160 g) were surgically prepared with unilateral tight ligation of spinal nerves L5 and L6 following the method of Kim and Chung (Kim S. H., Chung J. M. (1992) Pain, September; 50(3):355-63). After 3-4 weeks recovery, paw withdrawal to light touch was assessed as described by Chaplan et al. (Chaplan S. R., et al., (1994) J. Neurosci Methods, July; 53(1):55-63). […] After acclimation, baseline von Frey thresholds were assessed for the injured hindpaw at −15 min. […] Following drug administration, von Frey thresholds were measured at 15, 30, 60 and 90 min. Data were analyzed by a 2-way repeated measures analysis of variance followed by Dunnett's test (p<0.05). […]
# Reversal of neuropathic pain behavior may be expressed as a percentage (0-100%) of the maximum possible effect, over and above the vehicle effects. […]
# For example, a compound which immediately reversed neuropathic pain behavior to normal levels, such that animals only responded to the highest von Frey filament (15 g), and maintained normal levels through out the post-drug testing period (90 min) would be calculated as Δ% MPE=100%.
# [3] = system: systemic polyneuropathy nerve injury-induced tactile allodynia; test: Diabetic model of neuropathic pain (Streptozoticin & von Frey test); assay type: in vivo, Sprague Dawley rats; conditions: 10 mg/kg, i.v.; STZ diabetic rats, von Frey thresholds over 90 min
# Protocol: Diabetic model of neuropathic pain (Streptozoticin & von Frey test). To test agents for activity against systemic polyneuropathy nerve injury-induced tactile allodynia, animals were treated with streptozoticin (STZ) to create a diabetic condition by selective cytotoxic action upon pancreatic β-islet cells that produce insulin following the method of Courteix, et al. (Courteix C., et al., (1993) Pain, April; 53(1):81-8). In brief, male Sprague Dawley rats (wt. 200-275 g) received an injection of STZ (75 mg/kg, i.p.) and diabetes was confirmed three weeks after STZ injection by measurement of tail vein blood glucose levels. After 3-4 weeks, paw withdrawal to light touch was assessed as described by Chaplan et al. (Chaplan S. R., et al., (1994) J Neurosci Methods, July; 53(1):55-63). In brief, rats are placed in a plastic cage with a wire mesh bottom and allowed to acclimate for 15-30 minutes, until cage exploration and grooming stops. […] After acclimation, baseline von Frey thresholds were assessed for the injured hindpaw at −15 min. […] Following drug administration, von Frey thresholds were measured at 15, 30, 60 and 90 min. Data were analyzed by a 2-way repeated measures analysis of variance followed by Dunnett's test (p<0.05). […]
smiles,measurement,setting,value
"CC(NC(=O)c1sc(-c2ccccc2F)nc1C(F)(F)F)c1cccc(OC(F)(F)F)c1 (stereo not drawn) [Example 21, 2-(2-fluorophenyl)-4-(trifluoromethyl)-N-[1-[3-(trifluoromethoxy)phenyl]ethyl]-5-thiazolecarboxamide]",EC50,[1],3 nM
same,AUC (Δ % MPE),[2],"28 (10 mg/kg, i.v.) Δ % MPE"
same,AUC (Δ % MPE),[3],"28 (10 mg/kg, i.v.) Δ % MPE"
